The values below come from PubChem BioAssay (NCI).

Some test systems named below: A498 renal; A549 NSCLC; ACHN renal; COLO 205 colon; HL-60(TB) leukemia; HOP-92 NSCLC; SK-MEL-5 melanoma; SR leukemia; UACC-257 melanoma; UACC-62 melanoma.
Assay in all cases: NCI-60 cell line screen, 48 h

Several values for one entry are separate records, joined by “and”; a condition that tells them apart may be missing. Equal entries are not always repeated.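 Growth conditions: 96-well plates. Treatment: test compound, 48 hours, 5 concentrations. Analysis: linear interpolation between bracketing concentrations; unreached endpoints set to highest concentration. GI50 marks 50% less growth. The concentration for full growth arrest is given as TGI.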 Some results are limits rather than exact numbers.

Take `COc1ccc(NC(=O)c2sc3nc(C)c(C(=O)/C=C/c4cccc(OC)c4)cc3c2N)cc1`: the GI50 is 1.08 µM in the test with A498 renal; 1.18 µM with A549 NSCLC; 1.08 µM in the test on ACHN renal; 2 µM with COLO 205 colon; 1.34 µM in the test on HL-60(TB) leukemia; 1.51 µM with HOP-92 NSCLC. For the same compound, the GI50 in the test on SK-MEL-5 melanoma was 3.55 µM; in the test on SR leukemia, 1.24 µM; in the test on UACC-257 melanoma, 1.74 µM; in the test with UACC-62 melanoma, 1.39 µM. In addition, the TGI in the test with A498 renal was 3.22 µM; in the test with A549 NSCLC it was 9.22 µM; in the test on ACHN renal, 2.49 µM; in the test with COLO 205 colon it was 10.9 µM; in the test on HL-60(TB) leukemia, 4.24 µM; with HOP-92 NSCLC, 9.99 µM. Also, the TGI in the test with SK-MEL-5 melanoma worked out at 10.7 µM; with SR leukemia, 5.92 µM; in the test on UACC-257 melanoma, 11.7 µM; with UACC-62 melanoma, 4.11 µM.
As for `Cc1ccc2c(c1)C(=O)c1c-2c(OCCCN(C)C)nc2ccccc12`, the GI50 with A498 renal was 4.02 µM; in the test on A549 NSCLC, 1.46 µM; in the test on ACHN renal, 0.731 µM; with COLO 205 colon, 1.16 µM; with HL-60(TB) leukemia, 2.31 µM; in the test with HOP-92 NSCLC it was 2.18 µM. Further, the GI50 is 4.14 µM in the test with SK-MEL-5 melanoma, 0.316 µM in the test with SR leukemia, 3.06 µM with UACC-257 melanoma and 2.08 µM with UACC-62 melanoma. Moreover, the TGI in the test on A498 renal turned out to be 14.3 µM; in the test on A549 NSCLC, 3.19 µM; with ACHN renal, 2.11 µM; with COLO 205 colon, 3.82 µM; in the test on HL-60(TB) leukemia, 19.6 µM; in the test with HOP-92 NSCLC it was 11.6 µM. The TGI was 16.3 µM with SK-MEL-5 melanoma, 1.38 µM in the test with SR leukemia, 5.82 µM in the test with UACC-257 melanoma and 4.34 µM in the test with UACC-62 melanoma.
With `C=CCN1/C(=C2\SC(=S)N(c3ccc(C)cc3)C2=O)Sc2c1ncn(C)c2=O`, the TGI in the test with A498 renal, in the test on A549 NSCLC, with ACHN renal, in the test with COLO 205 colon, in the test with HL-60(TB) leukemia and in the test on HOP-92 NSCLC was over 100 µM each time. Further, the TGI in the test on SK-MEL-5 melanoma, in the test with SR leukemia, in the test with UACC-257 melanoma and with UACC-62 melanoma was over 100 µM throughout.
Consider `Cc1c(N)nc(C(CC(N)=O)NCC(N)C(N)=O)nc1C(=O)NC(C(=O)NC(C)C(O)C(C)C(=O)NC(C(=O)NCCc1nc(-c2nc(C(=O)NCCCNC(C)c3ccccc3)cs2)cs1)C(C)O)C(OC1OC(CO)C(O)C(O)C1OC1OC(CO)C(O)C(OC(N)=O)C1O)c1cnc[nH]1` (centres undefined), for which the TGI in the test with A498 renal was 27.5 µM; with A549 NSCLC, 50 µM and > 100 µM; in the test on ACHN renal, 0.189 µM and 1.48 µM; in the test on COLO 205 colon it was 50 µM and > 100 µM; in the test on HL-60(TB) leukemia, 50 µM and > 100 µM; in the test with HOP-92 NSCLC, 3.51 µM and 25.8 µM. Further, the TGI is 14.9 µM and 18.6 µM in the test on SK-MEL-5 melanoma; 50 µM and > 100 µM in the test on SR leukemia; 50 µM and > 100 µM in the test with UACC-257 melanoma; 8.82 µM with UACC-62 melanoma. Besides, the GI50 in the test on A549 NSCLC was 0.63 µM; with COLO 205 colon, 32.6 µM; with HL-60(TB) leukemia, 32 µM; in the test with HOP-92 NSCLC, 0.227 µM; in the test with SK-MEL-5 melanoma, 1.51 µM; in the test with SR leukemia, 50.3 µM. Moreover, in the test with UACC-257 melanoma, the GI50 is 56.5 µM.
Consider `C#CC1(O)CCC2[C@@H]3CCc4cc(Oc5nc(F)nc(-c6c7ccccc7c(SCC)n6CCC)n5)ccc4C3CC[C@@]21C` (some centres undefined), for which the TGI in the test on A498 renal, in the test with A549 NSCLC, in the test on ACHN renal, with COLO 205 colon, in the test with HL-60(TB) leukemia and in the test with HOP-92 NSCLC was over 100 µM each time. Also, the TGI in the test on SK-MEL-5 melanoma, in the test with SR leukemia, in the test with UACC-257 melanoma and in the test on UACC-62 melanoma was over 100 µM throughout.
For `Nc1nc2cc(CC[C@H]3C[C@@H](n4ccc5c(N)ncnc54)[C@H](O)[C@@H]3O)ccc2cc1Br`, the GI50 in the test with A498 renal was 2.38 µM; in the test with A549 NSCLC, 12.4 µM; in the test with ACHN renal it was 12.3 µM; in the test with COLO 205 colon, 11.3 µM; with HL-60(TB) leukemia it was 14.1 µM; in the test with HOP-92 NSCLC it was 6.66 µM. Further, the GI50 with SK-MEL-5 melanoma was 0.579 µM; with SR leukemia it was 18.7 µM; in the test with UACC-257 melanoma, 3.68 µM; in the test with UACC-62 melanoma it was 8.95 µM. Moreover, the TGI in the test on A498 renal is 18.9 µM; in the test on A549 NSCLC, 34.3 µM; in the test on ACHN renal, 28.5 µM; in the test on COLO 205 colon it was 37.3 µM; with HL-60(TB) leukemia it was 38.5 µM; in the test with HOP-92 NSCLC, 39.9 µM. Also, the TGI with SK-MEL-5 melanoma was 2.98 µM; with SR leukemia, over 100 µM; in the test on UACC-257 melanoma, 19 µM; in the test with UACC-62 melanoma it was 21.7 µM.
Turning to `CO[C@H]1C[C@](C)(O)Cc2cc3c(c(O)c21)C(=O)c1c(O)cc2c(c1C3=O)O[C@@H]1O[C@@]2(C)[C@H](O)[C@@H](N(C)C)[C@@H]1O`, the GI50 in the test with A498 renal is 1.66 µM; with A549 NSCLC, 0.139 µM; in the test on ACHN renal, 0.107 µM; in the test on COLO 205 colon, 1.46 µM; with HL-60(TB) leukemia, 0.159 µM; in the test on HOP-92 NSCLC, 1.81 µM. Also, the GI50 in the test on UACC-257 melanoma is 3.78 µM. Also, the TGI in the test with A498 renal is 7.95 µM and 5.14 µM; in the test with A549 NSCLC, 1.61 µM and 3.02 µM; in the test on ACHN renal, 1.31 µM and 1.9 µM; with COLO 205 colon it was 2.97 µM and 8.57 µM; with HL-60(TB) leukemia, 0.797 µM and 1.64 µM; in the test on HOP-92 NSCLC it was 7.76 µM and 2.96 µM. In addition, the TGI with SK-MEL-5 melanoma is 3.17 µM and 10.2 µM; in the test on SR leukemia it was 0.647 µM; in the test with UACC-257 melanoma, 7.55 µM and 31.6 µM; in the test on UACC-62 melanoma, 2.98 µM and 2.83 µM.
As for `Cc1ccc(S(=O)(=O)C2=c3nc4ccccc4cc3=C3C(=O)c4ccccc4C(=O)C32)cc1` (centres undefined), the TGI in the test with A498 renal, in the test with A549 NSCLC, in the test on ACHN renal, with COLO 205 colon, with HL-60(TB) leukemia and in the test on HOP-92 NSCLC was over 100 µM in each case. Moreover, the TGI in the test with SK-MEL-5 melanoma, in the test with SR leukemia, in the test on UACC-257 melanoma and in the test with UACC-62 melanoma was over 100 µM throughout.
As to `O=C1C(=O)c2ccccc2C(O)=C1CCCc1ccc(C2CCCCC2)cc1`, the GI50 is 2.35 µM in the test with A498 renal; 3.93 µM in the test on A549 NSCLC; 5.15 µM in the test with ACHN renal; 7.02 µM in the test with COLO 205 colon; 2.94 µM in the test with HL-60(TB) leukemia; 1.71 µM with HOP-92 NSCLC. Moreover, the GI50 was 1.52 µM in the test with SK-MEL-5 melanoma, 2.44 µM with SR leukemia, 6.5 µM with UACC-257 melanoma and 0.816 µM in the test on UACC-62 melanoma. For the same compound, the TGI in the test with A498 renal was 20.9 µM; in the test on A549 NSCLC it was over 100 µM; with ACHN renal, over 100 µM; in the test on COLO 205 colon, 34.8 µM; in the test on HL-60(TB) leukemia it was 28.5 µM; in the test with HOP-92 NSCLC, 24 µM. Besides, the TGI in the test on SK-MEL-5 melanoma is 13.9 µM; in the test with SR leukemia, 31 µM; with UACC-257 melanoma, over 100 µM; with UACC-62 melanoma, 19.4 µM.
